Experimental data from PubChem BioAssay AID504657 (Sanford-Burnham Center for Chemical Genomics, 2011).
Activity calls are given as the source filed them. No rule for the calls is given here.

System: S. cerevisiae tim10-1 mutant, luminescence counterscreen
Experiment: inhibitors in tim10-1 mutant yeast luminescence, dose response, counter-screen for tim23-1 inhibitor project, S. cerevisiae, uHTS hits (AID 504657)

Row | Structure (SMILES) | IC50
1 | C=C1CCc2c([nH]c3ccc(OCC(C)C)cc23)C1=O | > 100 µM (inactive)
2 | CC(C)OC(=O)c1cccnc1SCc1cc(=O)n2ccccc2n1 | > 100 µM (inactive)
3 | CC(C)(C)c1csc(NC(=O)c2ccc(Cl)s2)n1 | > 100 µM (inactive)
4 | Cc1cc(C)nc(SCC(=O)c2cc3ccccc3oc2=O)n1 | > 100 µM (inactive)
5 | Cc1ccc2nc(N3C(=O)CNC3=S)sc2c1 | > 100 µM (inactive)
6 | N#C/C(=C/c1ccc(N2CCOCC2)o1)c1nc2ccccc2[nH]1 | > 100 µM (inactive)
7 | O=C(N/N=C/C(Cl)=C\c1ccccc1)c1cccs1 | > 100 µM (inactive)
8 | O=C(N/N=C/C=C\c1ccco1)c1cccs1 | > 100 µM (inactive)
9 | Cc1nc2scc(C)n2c(=O)c1S(=O)(=O)Nc1ccc(OC(F)(F)F)cc1 | > 100 µM (inactive)
10 | O=c1cc(C(Cl)(Cl)Cl)oc2c1ccc1ccccc12 | > 100 µM (inactive)
11 | O=C(Nc1cc(-c2ccccc2)[nH]n1)c1ccccc1 | > 100 µM (inactive)
12 | N#C/C(=C\c1ccc(Cl)cc1)C(=O)Nc1cccnc1 | > 100 µM (inactive)
13 | Cc1nc2ccc(C(C(F)(F)F)(C(F)(F)F)C(F)(F)F)cc2[nH]1 | > 100 µM (inactive)
14 | CCn1c(N2CCN(S(=O)(=O)c3ccc(OC)cc3)CC2)nc2ccccc21 | > 100 µM (inactive)
15 | CCN(CC)S(=O)(=O)c1ccc(C(=O)OCn2nnc3ccccc3c2=O)cc1 | > 100 µM (inactive)
16 | O=C(Nc1ccc(-c2cn3c(n2)SCC3)cc1)c1ccco1 | > 100 µM (inactive)
17 | CSc1nnc(C(C)(C)C)c(=O)n1/N=C/c1ccccc1 | > 100 µM (inactive)
18 | Oc1ccccc1C1NN=C(c2ccccc2)S1 (stereo not given) | > 100 µM (inactive)
19 | Cc1nc2scc(C)n2c(=O)c1S(=O)(=O)Nc1ccc(N2CCOCC2)cc1 | > 100 µM (inactive)
20 | CCOC(=O)c1ccc(NC(=O)CSc2nc(=O)n3cccc(C)c3n2)cc1 | > 100 µM (inactive)
21 | CO/C(N)=C(\C#N)N=Cc1ccccc1Cl | > 100 µM (inactive)
22 | O=C(Nc1nc2ccccc2s1)C1CCCN1S(=O)(=O)c1ccc(Cl)cc1 (stereo not given) | > 100 µM (inactive)
23 | Cc1cc2cc(CNC(=O)c3ccc(C)c([N+](=O)[O-])c3)ccc2[nH]1 | > 100 µM (inactive)
24 | Cc1ccc(CS(=O)(=O)c2ncc(Cl)c(C(=O)Nc3ccc(OC(F)F)cc3)n2)cc1 | > 100 µM (inactive)
25 | O=C(N/N=C/c1coc2ccc(Cl)cc2c1=O)c1ccncc1 | > 100 µM (inactive)

Row | Structure (SMILES) | IC50
26 | O=C(N/N=C/c1coc2ccc(Cl)cc2c1=O)c1cc(O)cc(O)c1 | > 100 µM (inactive)
27 | COc1ccc(/C=C/C(=O)Nc2ccc3c(c2)CCC3)cc1OC | > 100 µM (inactive)
28 | CCOC(=O)c1sc(=NC(=O)c2ccco2)n(C)c1C | > 100 µM (inactive)
29 | O=c1oc(Cl)c(Cl)c2ccccc12 | > 100 µM (inactive)
30 | CN(C)/C=C1/C=C(c2ccccc2)OC1=O | 94.1 µM
31 | COc1ccc(C(=O)N/N=C\c2coc3ccc(Cl)cc3c2=O)cc1 | > 100 µM (inactive)
32 | CCOC(=O)c1cccnc1SCc1cc(=O)n2ccccc2n1 | > 100 µM (inactive)
33 | C(=C\c1ccccc1)/C=N/Nc1nc2ccccc2[nH]1 | > 100 µM (inactive)
34 | CN1CCc2nc3sc(C(=O)C45CC6CC(CC(C6)C4)C5)c(N)c3cc2C1 | > 100 µM (inactive)
35 | O=c1c(O)c(-c2ccccc2)oc2cc(O)cc(O)c12 | > 100 µM (inactive)
36 | COc1ccc2c(c1)sc1nc(-c3ccccc3)cn12 | > 100 µM (inactive)
37 | O=C(Nc1ccc(-c2cn3ccccc3n2)cc1)c1cccs1 | > 100 µM (inactive)
38 | O=C(Nc1ccc2nc(-c3ccc(Br)o3)[nH]c2c1)c1cccs1 | > 100 µM (inactive)
39 | O=C(CSc1cccc[n+]1[O-])Nc1ccccc1Oc1ccccc1 | > 100 µM (inactive)
40 | Cc1ccc(Nc2nc(-c3cccnc3)nc3ccccc23)cc1 | > 100 µM (inactive)
41 | O=C(/C=C/c1ccccc1Cl)Nc1ccccc1 | > 100 µM (inactive)
42 | Oc1ccc(Oc2ccc(Oc3ccc(O)cc3)cc2)cc1 | > 100 µM (inactive)
43 | Cc1ccc(-c2nn(-c3ccccc3)cc2NC(=O)CCl)cc1 | > 100 µM (inactive)
44 | CC(C)Cn1cnc2c(c(-c3ccccc3)c(-c3ccccc3)n2Cc2ccco2)c1=N | > 100 µM (inactive)
45 | CCCCn1c(N)c(N(CCC(C)C)C(=O)c2ccc3c(c2)OCO3)c(=O)[nH]c1=O | > 100 µM (inactive)
46 | Cc1ccc2[nH]cc(C(=O)CCl)c2c1 | > 100 µM (inactive)
47 | COc1cc2c(cc1OC)/C(=C/c1ccc(Cl)cc1)C(=O)OC2 | > 100 µM (inactive)
48 | CCCN(C(=O)c1ccc([N+](=O)[O-])c(C)c1)c1c(N)n(Cc2ccccc2)c(=O)[nH]c1=O | > 100 µM (inactive)
49 | O=C1OC(c2ccccc2)=N/C1=C\C=C\c1ccco1 | > 100 µM (inactive)
50 | N#Cc1c(-c2ccccc2)cc(-c2ccc(O)cc2)nc1N | > 100 µM (inactive)
